Each structure is given as a SMILES string. Like-named read-outs stand apart in the source and are kept apart here.

What all share (assay): KinomeScan kinase panel, single concentration 10 µM
Common to all, as to type: binding

The target of test [1] is T1, KinomeScan kinase panel (Homo sapiens, UniProt P00533, L858R).
T1 construct: purchased DiscoveRx (KinomeScan)
Conditions: EGFR(L858R), 10 µM.

In test [2] the target is T2, KinomeScan kinase panel (Homo sapiens, UniProt Q12866).
T2 construct: purchased DiscoveRx (KinomeScan)
T2 sequence (Q12866 21-999): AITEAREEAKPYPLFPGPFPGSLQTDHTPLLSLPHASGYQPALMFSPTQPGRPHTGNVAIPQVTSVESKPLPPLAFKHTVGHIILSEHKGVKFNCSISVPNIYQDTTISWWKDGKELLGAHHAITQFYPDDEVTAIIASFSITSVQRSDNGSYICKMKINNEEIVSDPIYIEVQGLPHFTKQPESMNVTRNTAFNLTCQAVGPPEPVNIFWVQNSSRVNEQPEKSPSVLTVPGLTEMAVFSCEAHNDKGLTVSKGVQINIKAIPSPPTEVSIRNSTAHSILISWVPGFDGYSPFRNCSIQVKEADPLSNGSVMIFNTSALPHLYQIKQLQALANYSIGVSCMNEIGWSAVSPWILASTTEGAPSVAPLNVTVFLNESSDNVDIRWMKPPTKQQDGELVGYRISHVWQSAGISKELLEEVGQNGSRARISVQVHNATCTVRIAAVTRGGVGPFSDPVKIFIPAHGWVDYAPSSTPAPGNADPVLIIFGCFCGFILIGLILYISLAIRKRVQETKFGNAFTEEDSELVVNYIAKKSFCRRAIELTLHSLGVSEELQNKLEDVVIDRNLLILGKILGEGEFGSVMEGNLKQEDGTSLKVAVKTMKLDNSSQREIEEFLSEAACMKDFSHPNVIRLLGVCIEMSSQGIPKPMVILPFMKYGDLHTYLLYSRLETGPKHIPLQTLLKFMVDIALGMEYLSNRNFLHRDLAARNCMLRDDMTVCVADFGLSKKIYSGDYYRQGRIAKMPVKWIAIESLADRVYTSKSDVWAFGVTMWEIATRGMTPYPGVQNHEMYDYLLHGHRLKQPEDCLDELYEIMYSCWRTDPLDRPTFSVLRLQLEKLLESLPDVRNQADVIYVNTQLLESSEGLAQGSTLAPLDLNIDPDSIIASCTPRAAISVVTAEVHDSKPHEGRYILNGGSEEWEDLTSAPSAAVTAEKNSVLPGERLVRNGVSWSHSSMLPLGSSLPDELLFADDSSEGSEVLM
To be noted: MERTK, 10 µM; read-out: score (%).

Test [3] has as its target T3, KinomeScan kinase panel (Homo sapiens, UniProt P41240).
T3 construct: purchased DiscoveRx (KinomeScan)
To be noted: CSK, 10 µM.

Test [4] addresses T4, KinomeScan kinase panel (Homo sapiens, UniProt P00519, T315I).
T4 construct: purchased DiscoveRx (KinomeScan)
Conditions: 10 µM, read-out: score (%).

The target of test [5] is T5, KinomeScan kinase panel (Homo sapiens, UniProt Q9BRS2).
T5 construct: purchased DiscoveRx (KinomeScan)
T5 sequence (Q9BRS2 1-568): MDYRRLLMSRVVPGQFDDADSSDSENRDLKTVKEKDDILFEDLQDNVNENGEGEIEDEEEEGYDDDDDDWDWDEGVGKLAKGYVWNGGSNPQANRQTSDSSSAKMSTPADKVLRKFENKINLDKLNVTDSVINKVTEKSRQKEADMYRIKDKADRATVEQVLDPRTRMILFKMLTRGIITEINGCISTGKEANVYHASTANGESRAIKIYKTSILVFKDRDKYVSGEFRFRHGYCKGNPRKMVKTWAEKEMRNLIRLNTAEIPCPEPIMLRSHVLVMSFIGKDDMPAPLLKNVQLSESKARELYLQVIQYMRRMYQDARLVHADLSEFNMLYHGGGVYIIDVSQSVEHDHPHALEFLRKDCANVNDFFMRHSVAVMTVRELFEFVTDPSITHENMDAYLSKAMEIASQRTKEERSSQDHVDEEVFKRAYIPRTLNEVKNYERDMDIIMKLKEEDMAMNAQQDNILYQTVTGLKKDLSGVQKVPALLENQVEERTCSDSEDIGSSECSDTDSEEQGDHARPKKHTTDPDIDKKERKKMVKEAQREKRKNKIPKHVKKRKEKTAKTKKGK
To be noted: read-out: score (%).

Test [6] has as its target T6, KinomeScan kinase panel (Homo sapiens, UniProt P51813).
T6 construct: purchased DiscoveRx (KinomeScan)
T6 sequence (P51813 1-675): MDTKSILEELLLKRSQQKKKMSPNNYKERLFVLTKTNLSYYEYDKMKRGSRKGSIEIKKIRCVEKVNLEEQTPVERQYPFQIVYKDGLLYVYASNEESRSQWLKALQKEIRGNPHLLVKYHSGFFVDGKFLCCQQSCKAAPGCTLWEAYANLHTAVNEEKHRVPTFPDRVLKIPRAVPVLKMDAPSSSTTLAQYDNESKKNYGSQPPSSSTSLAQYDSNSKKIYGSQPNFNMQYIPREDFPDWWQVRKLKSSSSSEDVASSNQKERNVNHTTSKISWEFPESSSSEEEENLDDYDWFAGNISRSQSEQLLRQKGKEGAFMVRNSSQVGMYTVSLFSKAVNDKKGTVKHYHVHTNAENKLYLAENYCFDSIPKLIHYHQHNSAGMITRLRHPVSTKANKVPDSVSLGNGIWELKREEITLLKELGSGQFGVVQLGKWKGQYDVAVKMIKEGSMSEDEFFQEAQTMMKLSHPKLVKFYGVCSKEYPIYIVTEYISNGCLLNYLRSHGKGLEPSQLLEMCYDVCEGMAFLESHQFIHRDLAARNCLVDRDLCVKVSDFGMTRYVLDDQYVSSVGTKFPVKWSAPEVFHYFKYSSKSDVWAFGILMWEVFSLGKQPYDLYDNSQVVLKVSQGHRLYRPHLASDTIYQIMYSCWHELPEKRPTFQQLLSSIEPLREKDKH
Conditions: BMX, 10 µM; read-out: score (%).

The target in test [7] is T7, KinomeScan kinase panel (Homo sapiens, UniProt P0C1S8).
T7 construct: purchased DiscoveRx (KinomeScan)
T7 sequence (P0C1S8 whole entry): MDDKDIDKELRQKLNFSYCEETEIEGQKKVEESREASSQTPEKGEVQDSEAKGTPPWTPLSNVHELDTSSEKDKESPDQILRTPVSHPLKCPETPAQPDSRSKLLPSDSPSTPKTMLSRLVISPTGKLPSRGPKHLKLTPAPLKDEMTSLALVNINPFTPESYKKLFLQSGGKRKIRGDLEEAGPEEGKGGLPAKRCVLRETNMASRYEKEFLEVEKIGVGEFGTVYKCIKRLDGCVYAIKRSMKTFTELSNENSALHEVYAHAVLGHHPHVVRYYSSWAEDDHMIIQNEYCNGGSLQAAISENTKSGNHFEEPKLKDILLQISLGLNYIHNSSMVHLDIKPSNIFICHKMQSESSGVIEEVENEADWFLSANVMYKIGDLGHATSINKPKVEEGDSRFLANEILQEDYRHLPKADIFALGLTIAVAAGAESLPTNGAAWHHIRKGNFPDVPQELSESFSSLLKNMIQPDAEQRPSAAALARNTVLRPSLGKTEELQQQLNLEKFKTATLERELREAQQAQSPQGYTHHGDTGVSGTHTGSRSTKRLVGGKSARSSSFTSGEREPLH
To be noted: kinase WEE2; 10 µM; read-out: score (%).

T3 sequence (P41240 whole entry): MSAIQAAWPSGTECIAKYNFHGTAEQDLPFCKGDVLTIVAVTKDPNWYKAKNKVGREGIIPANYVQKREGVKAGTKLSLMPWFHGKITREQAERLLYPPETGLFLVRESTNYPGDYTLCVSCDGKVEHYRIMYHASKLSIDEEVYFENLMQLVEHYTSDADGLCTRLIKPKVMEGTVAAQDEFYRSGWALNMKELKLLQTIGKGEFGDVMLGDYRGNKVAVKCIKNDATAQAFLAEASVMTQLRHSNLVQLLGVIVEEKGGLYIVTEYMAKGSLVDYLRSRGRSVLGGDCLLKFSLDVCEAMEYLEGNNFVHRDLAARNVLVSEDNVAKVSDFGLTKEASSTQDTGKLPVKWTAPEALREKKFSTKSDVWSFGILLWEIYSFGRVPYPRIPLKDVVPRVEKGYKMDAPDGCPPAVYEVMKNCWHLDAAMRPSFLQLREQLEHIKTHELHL
T1 sequence (P00533 25-1210 L858R): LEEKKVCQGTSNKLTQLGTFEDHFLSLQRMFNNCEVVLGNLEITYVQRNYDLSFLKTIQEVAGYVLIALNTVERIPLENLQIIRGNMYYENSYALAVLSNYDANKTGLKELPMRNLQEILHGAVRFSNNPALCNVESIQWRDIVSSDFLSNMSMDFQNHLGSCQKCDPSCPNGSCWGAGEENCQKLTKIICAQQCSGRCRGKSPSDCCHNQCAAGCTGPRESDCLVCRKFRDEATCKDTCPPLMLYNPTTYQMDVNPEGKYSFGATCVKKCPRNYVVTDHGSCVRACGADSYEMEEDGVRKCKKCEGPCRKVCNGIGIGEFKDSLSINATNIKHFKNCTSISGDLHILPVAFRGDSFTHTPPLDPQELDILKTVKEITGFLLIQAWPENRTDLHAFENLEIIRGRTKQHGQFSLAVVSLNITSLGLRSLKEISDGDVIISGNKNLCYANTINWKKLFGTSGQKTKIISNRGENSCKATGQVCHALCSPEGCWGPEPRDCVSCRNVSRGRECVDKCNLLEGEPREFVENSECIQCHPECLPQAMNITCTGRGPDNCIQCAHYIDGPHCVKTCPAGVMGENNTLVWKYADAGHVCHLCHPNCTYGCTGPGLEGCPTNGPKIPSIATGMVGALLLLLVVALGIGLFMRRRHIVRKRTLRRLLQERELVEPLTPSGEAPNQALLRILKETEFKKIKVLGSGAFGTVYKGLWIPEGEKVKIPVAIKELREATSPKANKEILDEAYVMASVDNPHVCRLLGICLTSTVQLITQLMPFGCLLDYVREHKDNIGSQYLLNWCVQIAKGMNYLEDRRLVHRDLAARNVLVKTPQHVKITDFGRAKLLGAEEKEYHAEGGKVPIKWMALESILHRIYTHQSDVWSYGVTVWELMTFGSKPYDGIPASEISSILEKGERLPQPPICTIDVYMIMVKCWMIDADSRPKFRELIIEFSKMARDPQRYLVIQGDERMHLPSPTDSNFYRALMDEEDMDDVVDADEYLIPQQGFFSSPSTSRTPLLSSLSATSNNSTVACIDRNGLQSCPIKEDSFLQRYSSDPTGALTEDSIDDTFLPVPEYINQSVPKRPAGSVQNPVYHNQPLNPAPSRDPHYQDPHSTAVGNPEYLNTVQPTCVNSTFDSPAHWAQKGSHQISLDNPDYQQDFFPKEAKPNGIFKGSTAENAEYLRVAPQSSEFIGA

For the molecule `CCN1CCN(Cc2ccc(NC(=O)c3ccc(C)c(NC(=O)c4cncc(-c5cccs5)c4)c3)cc2C(F)(F)F)CC1` [ALW-II-41-27], the “score (%)” value in test [1] is 0.25%; in test [3] it was 0.65%. Further, the remaining binding at 10 µM in test [2] is more than 30%; in test [4] (ABL1(T315I)) it was 0.7%; in test [5] (RIOK1, 10 µM), more than 30%; in test [6] it was 11%; in test [7], more than 30%.
As for `CCN1CCN(Cc2ccc(NC(=O)c3ccc(C)c(/C=C/c4cnc5[nH]ccc5c4Cl)c3)cc2C(F)(F)F)CC1` [HG-6-63-01, (E)-3-(2-(4-chloro-1H-pyrrolo[2,3-b]pyridin-5-yl)vinyl)-N-(4-((4-ethylpiperazin-1-yl)methyl)-3-(trifluoromethyl)phenyl)-4-methylbenzamide], the “score (%)” value in test [1] was found to be 0.4%; in test [3], 2.1%. Also, the remaining binding at 10 µM in test [2] was more than 30%; in test [4] (ABL1(T315I)) it was 0%; in test [5] (RIOK1, 10 µM), 0.2%; in test [6], 1.6%; in test [7] it was 15%.
For `CCN1CCN(Cc2ccc(NC(=O)c3ccc(C)c(C#Cc4cccnc4)c3)cc2C(F)(F)F)CC1` [XMD15-44], the “score (%)” value in test [1] turned out to be 4%; in test [3], 0.15%. The remaining binding at 10 µM in test [2] came to 5.2%; in test [4] (ABL1(T315I)-nonphosphorylated), 2.8%; in test [4] (ABL1(T315I)-phosphorylated), 2.6%; in test [5] (kinase RIOK1, 10 µM), 90%; in test [6], 2.7%; in test [7] it was 100%.
